Assay results reported in ChEMBL document CHEMBL1138294, “Design and development of water-soluble curcumin conjugates as potential anticancer agents” (J Med Chem, 2007).

Experiments:
BXPC-3 = experiment: Cytotoxicity against human BxPC3 cells; assay type: functional, cell-based
MIA PaCa-2 = experiment: Cytotoxicity against human MIA PaCa2 cells; assay type: functional, cell-based
PC-3 [1] = experiment: Cytotoxicity against human PC3 cells at 20 uM; assay type: functional
PC-3 [2] = experiment: Cytotoxicity against human PC3 cells; assay type: functional, cell-based
LS174T = experiment: Cytotoxicity against human LS174T cells; assay type: functional, cell-based
PC-3 [3] = experiment: Cytotoxicity against human PC3 cells at 10 uM; assay type: functional

COc1cc(/C=C/C(=O)CC(=O)/C=C/c2ccc(O)c(OC)c2)ccc1O [CURCUMIN]
IC50 (BXPC-3): 2.9 µM
IC50 (MIA PaCa-2): 9 µM
Activity (PC-3 [1]): 90%
IC50 (PC-3 [2]): 12 µM
IC50 (LS174T): 6.5 µM
Activity (PC-3 [3]): 65%
